Test results as given in patent US20230357233A1, “HETEROARYL COMPOUNDS, PREPARATION METHODS AND USES THEREOF” (INVENTISBIO CO., LTD., priority 2020, published 2023).

What was measured:
[1] = target: recombinant human KRAS^G12D protein (Homo sapiens, UniProt P01116, G12D); assay: Temperature-dependent Fluorescence (TdF) KRAS^G12D protein binding assay; conditions: 6 μM KRAS^G12D Protein, 10 μM compound, Sypro Orange; Kd calculated from fluorescent shift
Description: The TdF assay was conducted in the 96-well-based real-time fluorescence plate reader (ABI 7500 or Roche LightCycler 480). Fluorescent dye Sypro Orange (Sigma) was used to monitor the protein folding-unfolding transition. Protein-compound binding was gauged by the shift in the unfolding transition temperature (ΔTm) acquired with and without compound. […] The sample plate was heated from 30° C. to 95° C. with a thermal ramping rate of […], taking a fluorescence reading every 0.4° C. using a CY3 channel matching the excitation and emission wavelengths of Sypro Orange (λ ex 470 nm; λ em 570 nm). Binding affinity (Kd value) was calculated based on the degree of fluorescent shift of the protein with and without compound.

[2] = target: Ba/F3_KRAS^G12D cells (Homo sapiens, UniProt P01116, G12D, cells depend on it); assay: Ba/F3 KRAS^G12D cell proliferation assay (cell-titer Glo); format: cell-based; conditions: cell growth inhibition, treated with the compounds for 3 days, read-out: BaF3_KRAS^G12D IC50
Sequence of Ba/F3_KRAS^G12D cells (P01116 whole entry G12D): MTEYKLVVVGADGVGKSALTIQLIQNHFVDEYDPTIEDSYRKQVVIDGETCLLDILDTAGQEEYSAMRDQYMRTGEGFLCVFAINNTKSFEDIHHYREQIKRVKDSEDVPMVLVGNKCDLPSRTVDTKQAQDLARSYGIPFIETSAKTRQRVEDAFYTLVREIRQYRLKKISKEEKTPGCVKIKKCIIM

Sequence of recombinant human KRAS^G12D protein (P01116 1-188 isoform P01116-2 G12D): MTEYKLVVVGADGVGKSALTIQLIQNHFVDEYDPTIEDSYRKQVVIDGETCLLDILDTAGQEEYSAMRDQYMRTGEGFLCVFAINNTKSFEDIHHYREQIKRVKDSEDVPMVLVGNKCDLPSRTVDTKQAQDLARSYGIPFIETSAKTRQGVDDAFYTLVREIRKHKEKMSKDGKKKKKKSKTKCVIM

Row | SMILES | Kd [1] | GI50 [2]
1 | Oc1cc(-c2ncc3c(N4CC5CCC(C4)N5)nc(OCC45CCCN4CCC5)cc3n2)c2c(Cl)cccc2c1Cl [Compound 59] | > 5 µM | > 5 µM
2 | N#Cc1cc2c(N3CC4CCC(C3)N4)nc(OC[C@@]34CCCN3C[C@H](F)C4)nc2nc1-c1cc(O)cc2ccccc12 [Compound 60] | > 5 µM | > 5 µM
3 | CCc1cccc2cc(O)cc(-c3ncc4c(N5CC6CCC(C5)N6)nc(OC[C@@]56CCCN5C[C@H](F)C6)c(Cl)c4n3)c12 [Compound 61] | ≤ 0.5 µM | 0.5 to 5 µM
4 | Oc1cc(-c2ncc3c(N4CC5CCC(C4)N5)nc(OC[C@@]45CCCN4C[C@H](F)C5)cc3n2)c2ccccc2c1 [Compound 62] | > 5 µM | 0.5 to 5 µM
5 | Oc1cc(-c2ncc3c(N4CC5CCC(C4)N5)nc(OC[C@@]45CCCN4C[C@H](F)C5)c(Cl)c3n2)c2ccccc2c1 [Compound 63] | > 5 µM | 0.5 to 5 µM
6 | CN1CCC[C@H]1Cn1c(=O)nc(N2CCN[C@@H](CC#N)C2)c2cnc(-c3cc(O)cc4cccc(Cl)c34)c(F)c21 [Compound 64] | > 5 µM | > 5 µM
7 | Oc1cc(-c2ncc3c(N4CC5CCC(C4)N5)nc(OCC45CCCN4CCC5)c(Cl)c3n2)c2c(Cl)cccc2c1 [Compound 65] | 0.5 to 5 µM | > 5 µM
8 | c1ccc2c(-c3ncc4c(N5CC6CCC(C5)N6)cc(OCC56CCCN5CCC6)nc4n3)cccc2c1 [Compound 66] | > 5 µM | 0.5 to 5 µM
9 | Fc1c(-c2cccc3cccc(Cl)c23)ncc2c(N3CCNCC3)cc(OCC34CCCN3CCC4)nc12 [Compound 67] | > 5 µM | 0.5 to 5 µM
10 | Nc1nc2c(-c3ncc4c(N5CC6CCC(C5)N6)nc(OC[C@@]56CCCN5C[C@H](F)C6)nc4c3F)ccc(F)c2s1 [Compound 68] | ≤ 0.5 µM | > 5 µM
11 | Fc1c(-c2cccc3cccc(Cl)c23)ncc2c(OCC34CCCN3CCC4)cc(N3CCNCC3)nc12 [Compound 69] | > 5 µM | 0.5 to 5 µM
12 | Oc1cc(-c2ncc3c(N4C5CCC4CNC5)nc(OC[C@@]45CCCN4C[C@H](F)C5)nc3c2F)c2c(Cl)cccc2c1 [Compound 70] | ≤ 0.5 µM | < 0.5 µM
13 | Oc1cc(-c2ncc3c(N4CC5CCC(C4)N5)cc(OCC45CCCN4CCC5)nc3c2F)c2c(Cl)cccc2c1 [Compound 71] | 0.5 to 5 µM | > 5 µM
14 | Oc1cc(-c2ncc3c(N4CCNCC4)nc(OC[C@@]45CCCN4C[C@H](F)C5)nc3c2F)c2c(Cl)cccc2c1 [Compound 72] | ≤ 0.5 µM | 0.5 to 5 µM
15 | CN1CCC[C@H]1COc1nc(N2CCNCC2)c2cnc(-c3ccc(F)c4sc(N)nc34)c(F)c2n1 [Compound 73] | ≤ 0.5 µM | > 5 µM
16 | CC(=O)N1CCN(c2nc(OC[C@@]34CCCN3C[C@H](F)C4)nc3c(F)c(-c4cc(O)cc5cccc(Cl)c45)ncc23)CC1 [Compound 74] | ≤ 0.5 µM | > 5 µM
17 | Oc1cc(-c2ncc3c(N4CC5CCC(C4)N5)nc(OC[C@@]45CCCN4C[C@H](F)C5)c(Cl)c3n2)c2c(Cl)c(F)ccc2c1 [Compound 75] | ≤ 0.5 µM | > 5 µM
18 | Fc1ccc2cccc(-c3ncc4c(N5CC6CCC(C5)N6)nc(OC[C@@]56CCCN5C[C@H](F)C6)nc4c3F)c2c1Cl [Compound 76] | ≤ 0.5 µM | < 0.5 µM
19 | NC(=O)N1CCN(c2nc(OC[C@@]34CCCN3C[C@H](F)C4)nc3c(F)c(-c4cc(O)cc5cccc(Cl)c45)ncc23)CC1 [Compound 77] | > 5 µM | > 5 µM
20 | Oc1cc(-c2ncc3c(N4CC5CCC(C4)N5)cc(OC[C@@]45CCCN4C[C@H](F)C5)nc3c2F)c2c(Cl)cccc2c1 [Compound 78] | ≤ 0.5 µM | 0.5 to 5 µM
21 | O=C(C(O)O)N1CCN(c2nc(OC[C@@]34CCCN3C[C@H](F)C4)nc3c(F)c(-c4cc(O)cc5cccc(Cl)c45)ncc23)CC1 [Compound 79] | > 5 µM | > 5 µM
22 | Oc1cc(-c2ncc3c(N4CC5CCC(C4)N5)cc(OC[C@@]45CCCN4C[C@H](F)C5)nc3c2F)c2ccccc2c1 [Compound 80] | 0.5 to 5 µM | 0.5 to 5 µM
23 | Cc1nc(-c2cc(O)cc3ccccc23)c(F)c2nc(OC[C@@]34CCCN3C[C@H](F)C4)nc(N3CC4CCC(C3)N4)c12 [Compound 81] | ≤ 0.5 µM | < 0.5 µM
24 | Clc1cccc2cccc(-c3cc4nc(N5CCNCC5)ccc4c(OCC45CCCN4CCC5)n3)c12 [Compound 82] | > 5 µM | < 0.5 µM
25 | Clc1cccc2cccc(-c3nc(OCC45CCCN4CCC5)c4ccc(N5CCNCC5)nc4c3Br)c12 [Compound 83] | > 5 µM | 0.5 to 5 µM
26 | Oc1cc(-c2cc3nc(OC[C@@]45CCCN4C[C@H](F)C5)nc(N4CC5CCC(C4)N5)c3nn2)c2ccccc2c1 [Compound 84] | 0.5 to 5 µM | 0.5 to 5 µM

Row | SMILES | Kd [1] | GI50 [2]
27 | CCc1cccc2cc(O)cc(-c3nc(C)c4c(N5CC6CCC(C5)N6)nc(OC[C@@]56CCCN5C[C@H](F)C6)nc4c3F)c12 [Compound 85] | ≤ 0.5 µM | < 0.5 µM
28 | COc1cc(-c2cc3nc(OC[C@@H]4CCCN4C)nc(N4CC5CCC(C4)N5)c3nc2OC)c2ccccc2c1 [Compound 86] | > 5 µM | 0.5 to 5 µM
29 | Cc1nc(-c2ccc(F)c3sc(N)nc23)c(F)c2nc(OC[C@@]34CCCN3C[C@H](F)C4)nc(N3CC4CCC(C3)N4)c12 [Compound 87] | 0.5 to 5 µM | > 5 µM
30 | CCc1cccc2cc(O)cc(-c3cc4c(cn3)c(N3CC5CCC(C3)N5)nc(=O)n4C[C@@H]3CCCN3C)c12 [Compound 88] | > 5 µM | > 5 µM
31 | Cc1nc(-c2cc(O)cc3cccc(Cl)c23)c(F)c2nc(OC[C@@]34CCCN3C[C@H](F)C4)nc(N3CC4CCC(C3)N4)c12 [Compound 89] | ≤ 0.5 µM | < 0.5 µM
32 | Cc1nc(-c2cc(O)cc3cccc(Cl)c23)c(F)c2nc(OC[C@@]34CCCN3C[C@H](F)C4)nc(N3CC4CCC(C3)N4C)c12 [Compound 90] | 0.5 to 5 µM | 0.5 to 5 µM
33 | COc1nc2c(N3CC4CCC(C3)N4)nc(OC[C@@H]3CCCN3C)nc2cc1-c1cc(O)cc2ccccc12 [Compound 91] | 0.5 to 5 µM | 0.5 to 5 µM
34 | CN1CCC[C@H]1COc1nc(N2CC3CCC(C2)N3)c2[nH]c(=O)c(-c3cc(O)cc4ccccc34)cc2n1 [Compound 92] | 0.5 to 5 µM | > 5 µM
35 | Cc1cccc2cc(O)cc(-c3nc(C)c4c(N5CC6CCC(C5)N6)nc(OC[C@@]56CCCN5C[C@H](F)C6)nc4c3F)c12 [Compound 93] | ≤ 0.5 µM | < 0.5 µM
36 | Oc1cc(-c2cc3nc(OC[C@@]45CCCN4C[C@H](F)C5)nc(N4CC5CCC(C4)N5)c3nn2)c2c(Cl)cccc2c1 [Compound 94] | ≤ 0.5 µM | 0.5 to 5 µM
37 | Oc1cc(-c2nc(Cl)c3c(N4CC5CCC(C4)N5)nc(OC[C@@]45CCCN4C[C@H](F)C5)nc3c2F)c2ccccc2c1 [Compound 95] | ≤ 0.5 µM | < 0.5 µM
38 | CC1(O)CN2CCC[C@@]2(COc2nc(N3CC4CCC(C3)N4)c3cnc(-c4cc(O)cc5cccc(Cl)c45)c(F)c3n2)C1 (some centres unmarked) [Compound 96] | ≤ 0.5 µM | > 5 µM
39 | Oc1cc(-c2ncc3c(N4CC5(CCCN5)C4)nc(OC[C@@]45CCCN4C[C@H](F)C5)nc3c2F)c2c(Cl)cccc2c1 [Compound 97] | > 5 µM | > 5 µM
40 | N#Cc1c(-c2cccc3cccc(Cl)c23)nc(OCC23CCCN2CCC3)c2ccc(N3CCNCC3)nc12 [Compound 98] | > 5 µM | 0.5 to 5 µM
41 | Cc1nc(-c2ccc(F)c3nc(N)sc23)c(F)c2nc(OC[C@@]34CCCN3C[C@H](F)C4)nc(N3CC4CCC(C3)N4)c12 [Compound 99] | > 5 µM | 0.5 to 5 µM
42 | Oc1cc(-c2ncc3c(C4CC5CCC(C4)N5)nc(OC[C@@]45CCCN4C[C@H](F)C5)nc3c2F)c2c(Cl)cccc2c1 (some centres unmarked) [Compound 100] | > 5 µM | > 5 µM
43 | Oc1cc(-c2nc(OC[C@@]34CCCN3C[C@H](F)C4)c3ccc(N4CC5CCC(C4)N5)nc3c2Br)c2c(Cl)cccc2c1 [Compound 101] | > 5 µM | 0.5 to 5 µM
44 | Cc1cc(N)nc(-c2nc(C)c3c(N4CC5CCC(C4)N5)nc(OC[C@@]45CCCN4C[C@H](F)C5)nc3c2F)c1C1CC1 [Compound 102] | > 5 µM | > 5 µM
45 | C#Cc1cccc2cc(O)cc(-c3nc(C)c4c(N5CC6CCC(C5)N6)nc(OC[C@@]56CCCN5C[C@H](F)C6)nc4c3F)c12 [Compound 103] | ≤ 0.5 µM | < 0.5 µM
46 | Oc1cc(-c2cc3nc(N4CC5CCC(C4)N5)ccc3c(OC[C@@]34CCCN3C[C@H](F)C4)n2)c2ccccc2c1 [Compound 104] | > 5 µM | > 5 µM
47 | Cc1cc(N)nc(-c2nc(C)c3c(N4CC5CCC(C4)N5)nc(OC[C@@]45CCCN4C[C@H](F)C5)nc3c2F)c1C(F)(F)F [Compound 105] | 0.5 to 5 µM | > 5 µM
48 | Cc1nc(-c2cc(O)cc3cccc(C(F)(F)F)c23)c(F)c2nc(OC[C@@]34CCCN3C[C@H](F)C4)nc(N3CC4CCC(C3)N4)c12 [Compound 106] | ≤ 0.5 µM | < 0.5 µM
49 | Cc1cc2c(N3CC4CCC(C3)N4)nc(OCC34CCCN3CCC4)nc2c(=O)n1-c1cccc2ccccc12 [Compound 107] | > 5 µM | 0.5 to 5 µM
50 | O=c1c2nc(OCC34CCCN3CCC4)nc(N3CC4CCC(C3)N4)c2ccn1-c1cccc2ccccc12 [Compound 108] | > 5 µM | > 5 µM
51 | O=c1cc2c(N3CC4CCC(C3)N4)nc(OCC34CCCN3CCC4)nc2cn1-c1cc(O)cc2ccccc12 [Compound 109] | > 5 µM | > 5 µM
52 | O=c1cc2c(N3CC4CCC(C3)N4)nc(OCC34CCCN3CCC4)nc2cn1-c1cccc2ccccc12 [Compound 110] | > 5 µM | 0.5 to 5 µM
